Columns and labels:
BSA = target: T1, BSA (Bos taurus, UniProt P02769); test: Formation and degradation of albumin-bound DNIC in cell culturing media with FBS (EPR); format: in vitro ADME, bovine
T1 construct: 2 mL of αMEM with the presence of 20% FBS; from tissue; host or cells: fetal bovine serum (FBS) in αMEM / MEM / HSFM culture media
Method: 50 μM of DNIC–COOH was prepared via addition of 1 μL of 100 mM stock solution of DNIC–COOH in DMSO to 2 mL of αMEM with the presence of 20% FBS. After this solution was incubated at 37 °C for 0, 0.5, 1, 2, 3, 4, 8, and 24 h, respectively, EPR spectra of 100 μL aliquots of this solution were measured. Moreover, double integration of the EPR signal was executed to obtain the integrated EPR signal intensity under each condition, which was further utilized to characterize the time-dependent formation and degradation of BSA-bound DNIC. EPR investigations on the formation and degradation of protein-bound DNICs upon incubation of (1) 50 μM DNIC–COOMe in αMEM with the presence of 20% FBS, (2) 50 μM DNIC–COOH (or DNIC–COOMe) in MEM with the presence of 5% FBS, and (3) 50 μM DNIC–COOH (or DNIC–COOMe) in HSFM with the presence of 2% FBS were performed in a similar manner. In addition, EPR spectra for 50 μM of DNIC–COOH (or 50 μM of DNIC–COOMe) in αMEM, MEM, and HSFM, respectively, were also measured.

HCEC = test: Intracellular release of NO (DAF-FM fluorescence) in HCEC; format: cell-based, human; conditions: 75 μM DNIC–COOH or 1 μM DNIC–COOMe
Method: (§1) Intracellular release of NO by DNIC–COOH was validated using the fluorescence probe 4-amino-5-methylamino-2′,7′-difluorofluorescein diacetate (DAF-FM) in combination with fluorescence analysis techniques. Briefly, the MSC cells (or N2a and HCEC cells) were seeded onto a 96-well black plate at a density of 6 × 10^3 cells/well (or 1 × 10^4 cells/well for N2a and 8 × 10^3 cells/well for HCEC cells) and incubated at 37 °C overnight. On the next day, the MSC cells were first treated with 10 μM of DAF-FM (or 5 μM for N2a and HCEC cells) and incubated at 37 °C for 0.5 h. […] Fluorescence intensity of the cells was then recorded using a microplate reader (SpectraMax iD3, Molecular Devices, San Jose, CA) with an excitation wavelength at 485 nm and an emission wavelength at 525 nm. Three independent experiments were executed to measure the time-dependent change of average fluorescence intensity. Time-dependent change of average fluorescence intensity for the MSC/N2a/HCEC cells with sequential treatment of DAF-FM (10 μM for MSC cells, 5 μM for N2a cells, 5 μM for HCEC cells; 0.5 h) and DNIC–COOMe (2.5 μM for MSC cells, 10 μM for N2a cells, 1 μM for HCEC cells) was determined in a similar manner. […]

MSC = test: Intracellular release of NO (DAF-FM fluorescence) in MSC; format: cell-based, human; conditions: 100 μM DNIC–COOH or 2.5 μM DNIC–COOMe
Method: as §1

T1 sequence (P02769 25-607): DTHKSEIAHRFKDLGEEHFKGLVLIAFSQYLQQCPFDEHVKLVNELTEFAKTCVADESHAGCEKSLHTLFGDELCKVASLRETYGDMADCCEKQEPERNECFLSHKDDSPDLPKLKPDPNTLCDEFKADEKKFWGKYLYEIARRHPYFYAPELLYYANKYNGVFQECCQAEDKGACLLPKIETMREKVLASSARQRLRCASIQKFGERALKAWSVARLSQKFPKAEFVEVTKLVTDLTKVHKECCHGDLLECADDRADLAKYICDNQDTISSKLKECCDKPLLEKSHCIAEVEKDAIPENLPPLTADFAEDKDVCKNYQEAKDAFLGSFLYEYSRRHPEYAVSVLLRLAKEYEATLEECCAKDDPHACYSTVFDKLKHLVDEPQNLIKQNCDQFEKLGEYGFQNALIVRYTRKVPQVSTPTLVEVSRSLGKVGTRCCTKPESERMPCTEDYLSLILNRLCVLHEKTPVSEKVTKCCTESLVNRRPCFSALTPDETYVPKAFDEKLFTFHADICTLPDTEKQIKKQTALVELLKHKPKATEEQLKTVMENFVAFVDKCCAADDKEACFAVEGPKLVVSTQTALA

SMILES | binding to BSA yielding albumin-bound DNIC (BSA) | tmax for intracellular release of NO (HCEC) [h] | tmax for intracellular release of NO (MSC) [h]
O=[N][Fe]1([N]=O)[SH](CCC(=O)O)[Fe]([N]=O)([N]=O)[SH]1CCC(=O)O (stereo not drawn) [DNIC–COOH, [(NO)2Fe(μ-SCH2CH2COOH)2Fe(NO)2]] | slow binding | 6 | 4
COC(=O)CC[SH]1[Fe]([N]=O)([N]=O)[SH](CCC(=O)OC)[Fe]1([N]=O)[N]=O (stereo not drawn) [DNIC–COOMe, [(NO)2Fe(μ-SCH2CH2COOCH3)2Fe(NO)2]] | rapid binding | 1 | 1

— publication PMC11040670, “Mechanistic and Kinetic Insights into Cellular Uptake of Biomimetic Dinitrosyl Iron Complexes and Intracellular Delivery of NO for Activation of Cytoprotective HO-1” (JACS Au, 2024)
